From patent publication US12208092B2, “Compositions and methods for administering paltusotine to patients with hepatic impairment” (CRINETICS PHARMACEUTICALS, INC., priority 2023, dated 2025)
Read-outs that look alike come from different tables or passages of the source.

Assays:
[1] = test system: other human somatostatin receptors
SST2 = SST2 (Homo sapiens, UniProt P30874); assay: bias of G-protein activation versus β-arrestin activation; type: cell-based
[2] = test system: human liver microsomes and recombinant CYP450s; assay: CYP phenotyping, in vitro metabolism; type: in vitro ADME
[3] = Phase 1 hepatic impairment study, plasma PK after single oral 20 mg tablet; type: in vivo, human; conditions: for AUC(0-t) / AUC(0-inf) / Cmax / MRT inf / Vd/F / half-life / Tmax: both sexes, human, plasma, oral, 20 mg; for AUC(0-inf): read-out: AUC(0-inf), Mean ± SD; for Cmax: read-out: Cmax, Mean ± SD; for MRT inf: read-out: MRT(0-inf), Median (min, max); for Vd/F: read-out: VZ/F, Mean ± SD; for half-life: read-out: t1/2, Mean ± SD (converted); for Tmax: read-out: tmax, Median (min, max); for AUC(0-inf) Geometric Mean Ratio (90% CI), sensitivity analysis / AUC(0-t) Geometric Mean Ratio (90% CI), sensitivity analysis / Cmax Geometric Mean Ratio (90% CI), sensitivity analysis: matched pairs MMRM with age and BMI
Excerpt: Overall, 36 male and female subjects were enrolled, including 14 subjects with normal hepatic function, 8 subjects with mild stable hepatic impairment (Group 1), 8 subjects with moderate stable hepatic impairment (Group 2), and 6 subjects with severe stable hepatic impairment (Group 3). Healthy subjects with normal hepatic function (Group 4) were matched with hepatically impaired subjects according to sex, age (±10 years), and BMI (±20%). A reasonable attempt was made to match healthy subjects with hepatically impaired subjects in terms of race. Healthy subjects may have matched to more than 1 subject in different hepatic impairment groups but not more than 1 subject within each hepatic impairment group. Healthy subjects were recruited into the study after a sufficient number of hepatically impaired subjects were enrolled in Groups 1, 2, and 3.
The Child-Pugh scale was used to categorize the degree of hepatic impairment for assignment into the mild (score of 5-6), moderate (score of 7-9), and severe hepatic impairment (score of 10-15) groups.
The study included a screening period (Days −28 to −2), check-in (Day −1), and a treatment period (Days 1 to 7). On Day 1, all subjects received a single oral dose of 20 mg of paltusotine (1×20 mg tablet) administered with 240 mL of room temperature water following an overnight fast (nothing to eat or drink except water) of at least 10 hours. Subjects remained fasted and upright (seated or standing) for 4 hours after dosing. Water was permitted as desired except for the period 1 hour before and 1 hour after administration of study drug. Subjects received standardized meals that were scheduled at the same time daily during the study.
Serial blood samples for PK analysis of paltusotine were collected before dosing (0 hour) and up to 144 hours after administration of paltusotine.
Blood samples for analysis of paltusotine concentrations in plasma were collected at the following time points: before dosing (0 hour) and at 0.25, 0.5, 0.75, 1, 1.25, 1.5, 2, 3, 4, 6, 8, 10, 12, 24, 48, 72, 96, 120, and 144 hours after administration of paltusotine.
Pharmacokinetic samples were analyzed using a validated liquid chromatography coupled with tandem mass spectrometry assay for paltusotine in human plasma.
Plasma concentration-time data was analyzed by non-compartmental analysis using Phoenix® WinNonlin® Version 8.3 (Certara USA, Inc., Princeton, NJ).

Sequence of SST2 (P30874 whole entry): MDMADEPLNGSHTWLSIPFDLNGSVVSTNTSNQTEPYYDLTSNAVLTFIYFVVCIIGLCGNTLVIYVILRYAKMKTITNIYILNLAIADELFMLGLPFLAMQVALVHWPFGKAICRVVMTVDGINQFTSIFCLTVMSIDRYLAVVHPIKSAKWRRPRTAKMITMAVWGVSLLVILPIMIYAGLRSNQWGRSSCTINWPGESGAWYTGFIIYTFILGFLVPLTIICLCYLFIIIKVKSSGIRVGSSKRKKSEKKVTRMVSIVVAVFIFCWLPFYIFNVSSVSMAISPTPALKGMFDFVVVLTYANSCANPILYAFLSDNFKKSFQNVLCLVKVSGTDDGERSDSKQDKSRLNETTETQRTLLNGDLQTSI

SMILES: N#Cc1cccc(-c2ccc3ncc(-c4cc(F)cc(F)c4)c(N4CCC(N)CC4)c3c2)c1O [paltusotine, 3-[4-(4-amino-1-piperidyl)-3-(3,5-difluorophenyl)-6-quinolyl]-2-hydroxybenzonitrile]
- selectivity over other human somatostatin receptors [1]: > 4000 fold
- bias for G-protein activation (lowering cAMP) compared to β-arrestin activation (SST2): 75 fold
- CYP enzymes catalyzing oxidative metabolism [2]: CYP3A4/5 catalyzes the oxidative metabolism of paltusotine with minor contribution of CYP2D6
- contribution of CYP-mediated metabolism ([2]; in vitro studies): ~16.8%
- AUC(0-t) ([3]; mild hepatic impairment, read-out: AUC(0-24), Mean ± SD): 1150 ± 467 ng·h/mL
- AUC(0-inf) ([3]; mild hepatic impairment): 1880 ± 926 ng·h/mL
- AUC(0-t) ([3]; mild hepatic impairment, read-out: AUC(0-t), Mean ± SD): 1820 ± 888 ng·h/mL
- Cmax ([3]; mild hepatic impairment): 133 ± 56.6 ng/mL
- MRT inf ([3]; mild hepatic impairment): 28.3 h
- Vd/F ([3]; mild hepatic impairment): 565 ± 348 L
- half-life ([3]; mild hepatic impairment): 29.5 ± 9.4 h
- Tmax ([3]; mild hepatic impairment): 1.63 h
- AUC(0-t) ([3]; moderate hepatic impairment, read-out: AUC(0-24), Mean ± SD): 1050 ± 729 ng·h/mL
- AUC(0-inf) ([3]; moderate hepatic impairment): 1620 ± 1050 ng·h/mL
- AUC(0-t) ([3]; moderate hepatic impairment, read-out: AUC(0-t), Mean ± SD): 1580 ± 1040 ng·h/mL
- Cmax ([3]; moderate hepatic impairment): 100 ± 74.6 ng/mL
- MRT inf ([3]; moderate hepatic impairment): 25.2 h
- Vd/F ([3]; moderate hepatic impairment): 1050 ± 1110 L
- half-life ([3]; moderate hepatic impairment): 31.2 ± 7.93 h
- Tmax ([3]; moderate hepatic impairment): 2 h
- AUC(0-t) ([3]; normal hepatic function, read-out: AUC(0-24), Mean ± SD): 1070 ± 545 ng·h/mL
- AUC(0-inf) ([3]; normal hepatic function): 1840 ± 947 ng·h/mL
- AUC(0-t) ([3]; normal hepatic function, read-out: AUC(0-t), Mean ± SD): 1780 ± 914 ng·h/mL
- Cmax ([3]; normal hepatic function): 101 ± 53.7 ng/mL
- MRT inf ([3]; normal hepatic function): 34.6 h
- Vd/F ([3]; normal hepatic function): 660 ± 407 L
- half-life ([3]; normal hepatic function): 32.8 ± 6.92 h
- Tmax ([3]; normal hepatic function): 2 h
- AUC(0-t) ([3]; severe hepatic impairment, read-out: AUC(0-24), Mean ± SD): 1100 ± 704 ng·h/mL
- AUC(0-inf) ([3]; severe hepatic impairment): 1740 ± 1230 ng·h/mL
- AUC(0-t) ([3]; severe hepatic impairment, read-out: AUC(0-t), Mean ± SD): 1680 ± 1190 ng·h/mL
- Cmax ([3]; severe hepatic impairment): 110 ± 72.7 ng/mL
- MRT inf ([3]; severe hepatic impairment): 29.2 h
- Vd/F ([3]; severe hepatic impairment): 666 ± 479 L
- half-life ([3]; severe hepatic impairment): 29.4 ± 8.38 h
- Tmax ([3]; severe hepatic impairment): 3 h
- CL/F, Mean ± SD ([3]; mild hepatic impairment): 15.50 ± 13.496 L/h
- Cmax higher relative to normal group ([3]; mild hepatic impairment): 35%
- tlag, Median (min, max) ([3]; mild hepatic impairment): 0.00 (0.0, 0.3) h
- AUC(0-inf) Geometric Mean Ratio (90% CI), sensitivity analysis ([3]; mild vs normal): 0.94 (0.591, 1.504)
- AUC(0-t) Geometric Mean Ratio (90% CI), sensitivity analysis ([3]; mild vs normal): 0.95 (0.591, 1.515)
- Cmax Geometric Mean Ratio (90% CI), sensitivity analysis ([3]; mild vs normal): 1.38 (0.871, 2.200)
- AUC0-t and AUC0-inf lower relative to normal group ([3]; moderate hepatic impairment): approximately 25%
- CL/F, Mean ± SD ([3]; moderate hepatic impairment): 24.89 ± 25.914 L/h
- Cmax lower relative to normal group ([3]; moderate hepatic impairment): 24%
- mean CL/F higher compared to normal group ([3]; moderate hepatic impairment): 1.8 fold
- mean Vz/F higher compared to normal group ([3]; moderate hepatic impairment): 1.6 fold
- tlag, Median (min, max) ([3]; moderate hepatic impairment): 0.13 (0.0, 0.5) h
- AUC(0-inf) Geometric Mean Ratio (90% CI), sensitivity analysis ([3]; moderate vs normal): 0.72 (0.414, 1.251)
- AUC(0-t) Geometric Mean Ratio (90% CI), sensitivity analysis ([3]; moderate vs normal): 0.71 (0.403, 1.254)
- Cmax Geometric Mean Ratio (90% CI), sensitivity analysis ([3]; moderate vs normal): 0.74 (0.389, 1.412)
- CL/F, Mean ± SD ([3]; normal hepatic function): 14.05 ± 7.521 L/h
- tlag, Median (min, max) ([3]; normal hepatic function): 0.00 (0.0, 0.3) h
- time through which concentration was measurable in systemic circulation ([3]; postdose, all groups): 144 h
- CL/F, Mean ± SD ([3]; severe hepatic impairment): 15.92 ± 8.507 L/h
- tlag, Median (min, max) ([3]; severe hepatic impairment): 0.00 (0.0, 0.3) h
- AUC(0-inf) Geometric Mean Ratio (90% CI), sensitivity analysis ([3]; severe vs normal): 0.94 (0.516, 1.702)
- AUC(0-t) Geometric Mean Ratio (90% CI), sensitivity analysis ([3]; severe vs normal): 0.93 (0.512, 1.702)
- Cmax Geometric Mean Ratio (90% CI), sensitivity analysis ([3]; severe vs normal): 1.04 (0.586, 1.854)
